Read-outs that look alike come from different tables or passages of the source.

The test system of data set [1] is murine polychromatic erythrocytes. To be noted: for PCE/NCE ratio: bone marrow, cyclophosphamide 8 mg/mL, 12.5 ml/kg i.p. day 2. Here is the method:
The mammalian in vivo micronucleus test is used for the identification of substances which cause damage to chromosomes or the mitotic apparatus of murine polychromatic erythrocytes. This damage results in the formation of “micronuclei,” intracellular structures containing lagging chromosome fragments or isolated whole chromosomes. […] The positive control mice received a single intraperitoneal injection of cyclophosphamide (8 mg/mL, 12.5 ml/kg) on day 2. All mice were observed immediately after injection for any adverse reactions. […] On day 3, all mice were weighed and terminated.
The femurs were excised from the terminated mice, the bone marrow was extracted, and duplicate smear preparations were performed for each mouse. The bone marrow slides for each animal were read at 40× magnification. The ratio of polychromatic erythrocytes (PCE) to normochromatic erythrocytes (NCE), an index of bone marrow toxicity, was determined for each mouse by counting a total of at least 200 erythrocytes. Then a minimum of 2000 scoreable PCE per mouse were evaluated for the incidence of micronucleated polychromatic erythrocytes. Statistical analysis of the data were done using the Mann and Whitney test (at 5% risk threshold) from a statistical software package (Statview 5.0, SAS Institute Inc., USA).

A short description of data set [2]: Root canal treatment study (irrigation and oral rinses). The format is in vivo, patients. The settings on record: ORP water solution 109 pts; 2.5% SH 129 pts. An excerpt: Acute root canal was defined as an X-ray image showing a periapical lesion in addition to negative vitality and positive percussion clinical tests. Retrospective analysis of paired-cases presenting similar root canal infections between 2002 and 2003 at the same Institution was undertaken for the control group (the “SH” group) (see FIGS. 7A-B).
During the process the ducts were isolated to avoid contamination. The cavity was opened and the root drilled. ORP water solution flush started with the drilling process instead of using water or saline solution. Instrumentation was conducted according to the crown down technique using rotatory NiTi instruments. Instrumentation was done according to the extension of the duct as measured by the X ray. Duct irrigation was conducted with the ORP water solution after using each instrument. […] The duct was dried out with dental paper and occlusion done by lateral condensation with calcium hydroxide and epoxy resin. […] After 30 days, oral rinse once daily indefinitely was recommended.
A standard art-known treatment procedure with sodium hypochlorite (SH) was conducted for root canal treatment in control patients. Particular care was paid to avoid infiltration of the solution to the periapical region during the manipulation. All patients in the control group received ampicilin (500 mg tid) or cephalexin (500 mg bid) for 7 days as well as anti-inflammatory drugs (naproxen 500 mg bid) as necessary.
The demographic characteristics were similar for both groups (FIGS. 7 A & B).

The test system of data set [3] is human diploid fibroblasts (HDFs). Kind of data set: Cell viability, apoptosis and necrosis by flow cytometry. The format is cell-based. The settings on record: 880 mM. The procedure: HP is known to be toxic to eukaryotic cells, increasing apoptosis and necrosis and reducing cellular viability. […] HDF cultures were obtained from three different foreskins, which were pooled and cryopreserved together for the purpose of this study. Only diploid cells were used for all experiments. […] Simultaneous analyses of these parameters were performed in the same cell populations by flow cytometry using: […] FIG. 4B) Annexin V-FITC and FIG. 4C) Propidium iodide. FIGS. 8A-8C disclose percentage values expressed as mean±SD (n=3).

In another data set the test system is HDFs. To be noted: human, 1 month, 5 µM.

`O=P1(N(CCCl)CCCl)NCCCO1` (stereo not drawn) [cyclophosphamide]: the values for the PCE/NCE ratio in data set [1] (females) and in data set [1] (males) were 0.73 and 0.77, respectively. The “number of polychromatic erythrocytes bearing micronuclei” value in data set [1] (males, minimum of 2000 PCE per mouse evaluated) was determined as 11.0.
As for `[Na+].[O-]Cl` [2.5% SH, sodium hypochlorite], in data set [2], the dental losses entry was “Dental losses only occurred in the SH control group”, the “patients with an acute local reaction after root canal treatment” value was determined as 16 patients and the “total number of affected teeth” value was 23.
In the case of `OO` [HP, hydrogen peroxide], the Cell viability in data set [3] (5 min) came out at 55%; in data set [3] (30 min), 5%. In addition, the “cells with increased SA-β-Gal expression” value in the data set on HDFs is recorded as 86%.

The record behind these values is patent US9498548B2, “Method of using oxidative reductive potential water solution in dental applications” (priority 2005, dated 2016).
